Measured values: patent publication US11802111B2, “Cyclobutyl amide monoacylglycerol lipase modulators” (Janssen Pharmaceutica NV, priority 2020, dated 2023)

These compounds were tested against human MGL from HeLa cells (Homo sapiens (Human), UniProt Q99685) (assay: MGL in vitro activity assay ([glycerol-1,3-3H]-oleoyl glycerol hydrolysis, activated carbon filtration)). Settings: 300 nM [Glycerol-1,3-3H]-oleoyl glycerol, one hour.
Type: biochemical
Outline: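 Activity measured as tritium in the flow-through after activated carbon filtration of a 1 h reaction containing 300 nM 3H-oleoyl glycerol, compound and HeLa-derived human MGL. Compounds screened at 10 μM; IC50 series start at an empirically chosen highest concentration.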

Chain of human MGL from HeLa cells (Q99685 whole entry): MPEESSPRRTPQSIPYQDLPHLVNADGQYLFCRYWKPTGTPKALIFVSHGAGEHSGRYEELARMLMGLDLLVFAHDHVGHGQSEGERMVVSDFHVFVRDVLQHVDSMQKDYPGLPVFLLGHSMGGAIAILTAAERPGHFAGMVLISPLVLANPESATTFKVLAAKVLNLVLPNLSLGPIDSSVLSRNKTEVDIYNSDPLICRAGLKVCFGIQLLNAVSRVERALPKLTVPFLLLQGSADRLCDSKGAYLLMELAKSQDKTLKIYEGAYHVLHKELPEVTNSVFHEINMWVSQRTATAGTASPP

| IC50 [µM] | Compound |
| --- | --- |
| 0.06 | C[C@@H](c1ccccc1)[C@H]1CCC2(C1)CN(C(=O)[C@H]1C[C@@](C)(O)C1)C2 (relative stereo) [Example 338, ((1s,3*R)-3-Hydroxy-3-methylcyclobutyl)((*S)-6-((*R)-1-phenylethyl)-2-azaspiro[3.4]octan-2-yl)methanone] |
| 0.79 | C[C@]1(O)C[C@@H](C(=O)N2CC3(CCC(c4cnc5ccccn45)CC3)C2)C1 [Example 392, ((1s,3s)-3-Hydroxy-3-methylcyclobutyl)(7-(imidazo[1,2-c]pyridin-3-yl)-2-azaspiro[3.5]nonan-2-yl)methanone] |
| 0.017 | Cc1c(C2CCC3(CC2)CN(C(=O)[C@H]2C[C@@](C)(O)C2)C3)ccnc1OC(C)C [Example 376, ((1s,3s)-3-Hydroxy-3-methylcyclobutyl)(7-(2-isopropoxy-3-methylpyridin-4-yl)-2-azaspiro[3.5]nonan-2-yl)methanone] |
| 0.027 | C[C@]1(O)C[C@@H](C(=O)N2CC3(CCC(c4cnn5cccc5c4)CC3)C2)C1 [Example 393, ((1s,3s)-3-Hydroxy-3-methylcyclobutyl)(7-(pyrrolo[1,2-b]pyridazin-3-yl)-2-azaspiro[3.5]nonan-2-yl)methanone] |
| 0.523 | Cc1cc(C)cc([C@H]2CC[C@]3(CC2)CN(C(=O)[C@H]2C[C@@](C)(O)C2)[C@@H]3C)c1 (stereo in doubt) [Example 349, ((1*R,4r,7*R)-7-(3,5-Dimethylphenyl)-1-methyl-2-azaspiro[3.5]nonan-2-yl)((1s,3*S)-3-hydroxy-3-methylcyclobutyl)methanone] |
| 1.37 | C[C@]1(O)C[C@@H](C(=O)N2CC3(CC(Cc4cccnc4)C3)C2)C1 [Example 168, ((1s,3s)-3-Hydroxy-3-methylcyclobutyl)(6-(pyridin-3-ylmethyl)-2-azaspiro[3.3]heptan-2-yl)methanone] |
| 0.023 | C[C@]1(O)C[C@@H](C(=O)N2CC3(CCC(c4ccn(-c5ccccc5)n4)CC3)C2)C1 [Example 380, ((1s,3s)-3-Hydroxy-3-methylcyclobutyl)(7-(1-phenyl-1H-pyrazol-3-yl)-2-azaspiro[3.5]nonan-2-yl)methanone] |
| 0.018 | CC(F)(F)c1ccc(C2CCC3(C2)CN(C(=O)[C@H]2C[C@@](C)(O)C2)C3)cc1 (mixture of isomers) [Example 320, (rac)-(6-(4-(1,1-Difluoroethyl)phenyl)-2-azaspiro[3.4]octan-2-yl)((1s,3s)-3-hydroxy-3-methylcyclobutyl)methanone] |
| 0.015 | Cc1cc([C@@H]2CCC3(C2)CN(C(=O)[C@H]2C[C@@](C)(O)C2)C3)ccc1Cl [Example 69, ((R)-6-(4-Chloro-3-methylphenyl)-2-azaspiro[3.4]octan-2-yl)((1s,3S)-3-hydroxy-3-methylcyclobutyl)methanone] |
| 0.0035 | Cc1ccc(CC2CC3(C2)CN(C(=O)[C@H]2C[C@@](C)(O)C2)C3)cc1C(F)(F)F [Example 189, ((1s,3s)-3-Hydroxy-3-methylcyclobutyl)(6-(4-methyl-3-(trifluoromethyl)benzyl)-2-azaspiro[3.3]heptan-2-yl)methanone] |
| 0.01 | Cc1c(C2CCC3(C2)CN(C(=O)[C@H]2C[C@@](C)(O)C2)C3)cccc1C(F)(F)F (mixture of isomers) [Example 7, (rac)-((1s,3s)-3-Hydroxy-3-methylcyclobutyl)(6-(2-methyl-3-(trifluoromethyl)phenyl)-2-azaspiro[3.4]octan-2-yl)methanone] |
| 0.07 | Cn1ncc2cccc(CC3CC4(C3)CN(C(=O)[C@H]3C[C@@](C)(O)C3)C4)c21 [Example 299, ((1s,3s)-3-Hydroxy-3-methylcyclobutyl)(6-((1-methyl-1H-indazol-7-yl)methyl)-2-azaspiro[3.3]heptan-2-yl)methanone] |
| 0.038 | C[C@]1(O)C[C@@H](C(=O)N2CC3(CCC(Cc4cccc(OC(F)F)c4)CC3)C2)C1 [Example 160, (7-(3-(Difluoromethoxy)benzyl)-2-azaspiro[3.5]nonan-2-yl)((1s,3s)-3-hydroxy-3-methylcyclobutyl)methanone] |
| 0.0005 | Cc1cc(C2CCC3(C2)CN(C(=O)[C@H]2C[C@@](C)(O)C2)C3)ccc1OC(F)(F)F (mixture of isomers) [Example 66, (rac)-((1s,3s)-3-Hydroxy-3-methylcyclobutyl)(6-(3-methyl-4-(trifluoromethoxy)phenyl)-2-azaspiro[3.4]octan-2-yl)methanone] |
| 0.0037 | Cc1cc(Cl)cnc1OC1CCC2(CC1)CN(C(=O)[C@H]1C[C@@](C)(O)C1)C2 [Example 437, (7-((5-Chloro-3-methylpyridin-2-yl)oxy)-2-azaspiro[3.5]nonan-2-yl)((1s,3s)-3-hydroxy-3-methylcyclobutyl)methanoneo] |
| 0.0045 | Cc1cc(C2CC2)cc(C2CCC3(CC2)CN(C(=O)[C@H]2C[C@@](C)(O)C2)C3)c1 [Example 143, (7-(3-Cyclopropyl-5-methylphenyl)-2-azaspiro[3.5]nonan-2-yl)((1s,3s)-3-hydroxy-3-methylcyclobutyl)methanone] |

| IC50 [µM] | Compound |
| --- | --- |
| 0.09 | C[C@]1(O)C[C@@H](C(=O)N2CC3(CC(Cn4ccc5cccnc54)C3)C2)C1 [Example 286, (6-((1H-Pyrrolo[2,3-b]pyridin-1-yl)methyl)-2-azaspiro[3.3]heptan-2-yl)((1s,3s)-3-hydroxy-3-methylcyclobutyl)methanone] |
| 1.18 | C[C@]1(O)C[C@@H](C(=O)N2CC3(CC(c4ccc5ccncc5c4)C3)C2)C1 [Example 30, ((1s,3s)-3-Hydroxy-3-methylcyclobutyl)(6-(isoquinolin-7-yl)-2-azaspiro[3.3]heptan-2-yl)methanone] |
| 0.014 | C[C@]1(O)C[C@@H](C(=O)N2CC3(CCC(c4ccc(C5CC5)cc4)C3)C2)C1 (mixture of isomers) [Example 49, (rac)-(6-(4-Cyclopropylphenyl)-2-azaspiro[3.4]octan-2-yl)((1s,3s)-3-hydroxy-3-methylcyclobutyl)methanone] |
| 0.021 | C[C@]1(O)C[C@@H](C(=O)N2CC3(CC(Cc4ccc5ccn(CC(F)(F)F)c5n4)C3)C2)C1 [Example 297, ((1s,3s)-3-Hydroxy-3-methylcyclobutyl)(6-((1-(2,2,2-trifluoroethyl)-1H-pyrrolo[2,3-b]pyridin-6-yl)methyl)-2-azaspiro[3.3]heptan-2-yl)methanone] |
| 0.04 | C[C@]1(O)C[C@@H](C(=O)N2CC3(CCC(Cc4ccccc4)CC3)C2)C1 [Example 235, (7-Benzyl-2-azaspiro[3.5]nonan-2-yl)((1s,3s)-3-hydroxy-3-methylcyclobutyl)methanone] |
| 0.0046 | CC(C)c1cccc(C[C@@H]2CCC3(C2)CN(C(=O)[C@H]2C[C@@](C)(O)C2)C3)c1 (racemic) [Example 181, (rac)-((1s,3s)-3-Hydroxy-3-methylcyclobutyl)(6-(3-isopropylbenzyl)-2-azaspiro[3.4]octan-2-yl)methanone] |
| 0.858 | C[C@]1(O)C[C@@H](C(=O)N2CC3(CCC(Oc4ncc(C(F)(F)F)cn4)CC3)C2)C1 [Example 467, ((1s,3s)-3-Hydroxy-3-methylcyclobutyl)(7-((5-(trifluoromethyl)pyrimidin-2-yl)oxy)-2-azaspiro[3.5]nonan-2-yl)methanone] |
| 0.01 | C[C@]1(O)C[C@@H](C(=O)N2CC3(CC[C@H](c4ccc(OC(F)(F)F)cc4)C3)C2)C1 (stereo in doubt) [Example 54, ((1s,3*R)-3-Hydroxy-3-methylcyclobutyl)((*S)-6-(4-(trifluoromethoxy)phenyl)-2-azaspiro[3.4]octan-2-yl)methanone] |
| 0.0042 | C[C@]1(O)C[C@@H](C(=O)N2CC3(CC(Cc4ccc(C(F)(F)F)cc4)C3)C2)C1 [Example 195, ((1s,3s)-3-Hydroxy-3-methylcyclobutyl)(6-(4-(trifluoromethyl)benzyl)-2-azaspiro[3.3]heptan-2-yl)methanone] |
| 0.00076 | Cc1cc(C(F)(F)F)cnc1OC1CCC2(CC1)CN(C(=O)[C@H]1C[C@@](C)(O)C1)C2 [Example 446, ((1s,3s)-3-Hydroxy-3-methylcyclobutyl)(7-((3-methyl-5-(trifluoromethyl)pyridin-2-yl)oxy)-2-azaspiro[3.5]nonan-2-yl)methanone] |
| 0.018 | Cc1cccc(CC2CCC3(CC2)CN(C(=O)[C@H]2C[C@@](C)(O)C2)C3)c1F [Example 398, (7-(2-Fluoro-3-methylbenzyl)-2-azaspiro[3.5]nonan-2-yl)((1s,3s)-3-hydroxy-3-methylcyclobutyl)methanone] |
| 0.435 | C[C@]1(O)C[C@@H](C(=O)N2CC3(CCC(c4cccc(C(F)(F)F)n4)C3)C2)C1 (mixture of isomers) [Example 110, (rac)-((1s,3s)-3-Hydroxy-3-methylcyclobutyl)(6-(6-(trifluoromethyl)pyridin-2-yl)-2-azaspiro[3.4]octan-2-yl)methanone] |
| 0.0012 | COc1nc(CC2CC3(C2)CN(C(=O)[C@H]2C[C@@](C)(O)C2)C3)ccc1C(F)(F)F [Example 281, ((1s,3s)-3-Hydroxy-3-methylcyclobutyl)(6-((6-methoxy-5-(trifluoromethyl)pyridin-2-yl)methyl)-2-azaspiro[3.3]heptan-2-yl)methanone] |
| 0.067 | Cc1cc2cccnc2n1CC1CC2(C1)CN(C(=O)[C@H]1C[C@@](C)(O)C1)C2 [Example 287, ((1s,3s)-3-Hydroxy-3-methylcyclobutyl)(6-((2-methyl-1H-pyrrolo[2,3-b]pyridin-1-yl)methyl)-2-azaspiro[3.3]heptan-2-yl)methanone] |
| 0.01 | C[C@]1(O)C[C@@H](C(=O)N2CC3(CC[C@@H](c4ccc(OC(F)(F)F)cc4)C3)C2)C1 (stereo in doubt) [Example 53, ((1s,3*S)-3-Hydroxy-3-methylcyclobutyl)((*R)-6-(4-(trifluoromethoxy)phenyl)-2-azaspiro[3.4]octan-2-yl)methanone] |
| 0.015 | Cc1cc(C(F)(F)F)ccc1OC1CCC2(C1)CN(C(=O)[C@H]1C[C@@](C)(O)C1)C2 (mixture of isomers) [Example 255, (rac)-((1s,3s)-3-Hydroxy-3-methylcyclobutyl)(6-(2-methyl-4-(trifluoromethyl)phenoxy)-2-azaspiro[3.4]octan-2-yl)methanone] |
